Results: US12583884B2, “3beta-(benzyloxy)-17alpha-methyl-pregn-5-en-20-one for use in the treatment of cognitive disorders” (AELIS FARMA, priority 2018, dated 2026)

Assays:
[1] = Anxiety-like behaviors in the elevated plus maze; format: in vivo, mouse
Source text: The EPM apparatus was made of grey polyvinyl chloride and consisted of four elevated arms. The arms (height, 60 cm; length, 37 cm; width, 6 cm; each) were arranged in a cross-like disposition, with two opposite arms being enclosed by walls and the two other arms being open. A video camera placed on the top of the maze and connected to a tracking system allowed the automatic scoring of the locomotion of the mice in the maze. The light intensity of the maze was set at 45 lux in the open arms. One mouse was placed in the center of the EPM and was then free to explore the entire maze for 5 minutes. The time spent and the number of entries into the open arms and closed arms were measured. A decrease in the percentages of visits and/or of the time spent in open arms reflects an increase in anxiety levels.
Rimonabant was dissolved in a vehicle containing DMSO, (2%), Tween80 (2%) in injectable NaCl 0.9%. Within the same study, the effect of intraperitoneal injection of rimonabant at 10 mg/kg or of vehicle alone (10 ml/kg) was studied in the EPM in 2-month-old male C57B1/6J mice (n=10 per group). The EPM test was performed 30 minutes after rimonabant injection.

[2] = Depressive-like behaviors in the sucrose preference test; format: in vivo, mouse
Procedure: Sucrose preference was tested in the home cages of the mice. A sucrose solution containing 2% of sucrose (D(+) saccharose) in tap water was poured in plastic graduated bottles (volume in each bottle, 45 ml). Identical bottles were filled with tap water. All the mice were first habituated to the bottles and to the sucrose solution. One bottle containing water and one bottle containing sucrose were placed in the hopper of each home cage. […] The mice had access to the solutions from the beginning of the dark phase, at the daily peak of food and water consumption (from 7 pm to 8.30 am). The sucrose preference test was performed seven days later. Water and sucrose solutions were presented as described for habituation except that mice had access to the solutions from 12 pm to 10 pm. At each time point, the bottles were weighed, 1 g corresponding to 1 ml. The intake volume was calculated by subtracting the initial bottle weight to the final bottle weight.
15 or 30 mg/kg or of vehicle (corn oil; 5 ml/kg) was studied in the sucrose preference test in 2-month-old male C57B1/6J mice (n=7-8 per group). Rimonabant was dissolved in a vehicle containing dimethylsulfoxide (DMSO, 2%), Tween80 (2%) in injectable NaCl 0.9%. Within the same study, the effect of repeated intraperitoneal injections of rimonabant at 10 mg/kg or of vehicle alone (10 ml/kg) was studied in the sucrose preference test in 2-month-old male C57B1/6J mice (n=8 per group).

[3] = tested on: primary culture of rat cortical neurons; assay: Neurotoxicity in primary culture of cortical neurons; format: cell-based; settings: from 30 μM
Procedure: Cells were then followed by time-lapse imaging during 72 hours. The cells were then permeabilized. This procedure allowed to express the cytolysis over time as a percentage of the total number of cells per well.

[4] = tested on: primary culture of rat hepatocytes; assay: Hepatotoxicity in primary culture of hepatocytes; format: cell-based
Procedure: (§1) The percentage of cytolysed hepatocytes over time was determined by time lapse imaging with a fluorescent cytolysis marker. The number of bile canaliculi after 48 hours of treatment was determined using a fluorescent bile salt analog.
(§2) Primary rat hepatocytes from 10-12 weeks old Wistar rats were isolated using a two-step collagenase perfusion method. After 24 hours, cells were covered with a layer of Matrigel to perform a sandwich configuration culture. […] Cells were then stained using a fluorescent bile salt analog to measure the bile canaliculi network state and the Bsep pump activity. Acetaminophen (30 mM) and Cyclosporin A (1 μM) were added as positive controls of hepatotoxicity and biliary canaliculi loss, respectively.

[5] = tested on: primary culture of rat hepatocytes; assay: Biliary function: bile canaliculi in primary hepatocytes
Procedure: as §1, §2

[6] = Beyer et al., 2010; Patel and Hillard, 2006; cited from earlier work
[7] = therapeutic dose for the treatment of obesity; Zavatti et al., 2011; EPAR; cited from earlier work
[8] = Food intake of standard chow in lean mice; settings: acute 10 mg/kg ip; first 3 hours after light-off; male C57BL/6J
Procedure: Spontaneous intake of standard chow in mice was evaluated during the dark phase of the light-dark cycle. The amount of food eaten was measured at light-off, 3 hours and 13 hours after light-off.

HeLa cells = assay: Genotoxicity: Histone H2AX phosphorylation; settings: 100 μM; 24 hours
Procedure: This study aimed at measuring Histone H2AX phosphorylation (γH2AX), which is the cellular response to DNA damage resulting in double-stranded DNA breaks. […] Etoposide at 3 μM was added as positive control of genotoxic effects. An immunofluorescence was performed on treated cells with a specific antibody against the phosphorylated histone gH2AX. Nuclei were stained with a fluorescent DNA intercaling agent. The stained cells were imaged and analyzed on the BD Pathway 855 imager®.

[9] = Body weight of lean mice, repeated administrations
Source text: Mice were weighed prior to drug administration every day at the first week of treatment and then four days per week.

[10] = reference ID100 for rimonabant effects = 10 mg/kg

ID100: increase in anxiety-like behaviors ([1]; male mice): 10 mg/kg
Effect: increase in anxiety-like behaviors (acute administration) ([1]; male mice, rimonabant 10 mg/kg): Yes
N fold ID100: increase in anxiety-like behaviors [1, 10]: 1
Sucrose consumption ([2]; 10 mg/kg ip once a day, 28 days): reduced by half sucrose consumption
ID100: increase in depression-related behaviors ([2]; male mice): 10 mg/kg
Effect: increase in depression-related behaviors (repeated administration) ([2]; male mice, rimonabant 10 mg/kg): Yes
N fold ID100: increase in depression-related behaviors [2, 10]: 1
Effect on bile canaliculi ([5]; from 10 μM): suppressed bile canaliculi
Concentration decreasing the number of canaliculi ([5]; tested 0.1 to 100 μM, 48 hours): ≥ 1000 nM
Food intake [8]: significantly decreased food intake
SMILES: Cc1c(C(=O)NN2CCCCC2)nn(-c2ccc(Cl)cc2Cl)c1-c1ccc(Cl)cc1 [rimonabant]
Time spent and number of visits in the open arms ([1]; acute 10 mg/kg ip, 30 minutes after injection): markedly reduced the time spent and the number of visits in the open arms
Neural cell death [3]: 80%
Hepatocyte death ([4]; from 10 μM): 100%
Concentration increasing hepatocyte cell death ([4]; tested 0.1 to 100 μM, 48 hours): ≥ 3000 nM
Doses with similar effects (anhedonia, anxiety-like behaviors) in rodents [6]: ≥ 1 mg/kg
Doses inducing scratching, hyperactivity followed by sedation and convulsions [7]: 6 times the therapeutic dose
Genotoxicity (DNA damage) (HeLa cells): induced DNA damage
Body weight ([9]; 10 mg/kg ip once a day, 40 days): decreased body weight
ID100: inhibition of food-intake and body weight ([9]; male mice): 10 mg/kg
Effect: inhibition of food-intake and body weight (repeated administration) ([9]; male mice, rimonabant 10 mg/kg): Yes
N fold ID100: inhibition of food-intake and body weight [9, 10]: 1
